# Data reported in ChEMBL document CHEMBL3612058, “Synthesis and biological evaluation of a new series of 2-amino-3-aroyl thiophene derivatives as agonist allosteric modulators of the A1 adenosine receptor. A position-dependent effect study” (Eur J Med Chem, 2015).
# Tests used:
# [1] = molecular target: T1, Adenosine receptor A3 (Homo sapiens) (UniProt P0DMS8); test: Displacement of [3H]-MRE-3008-F20 from human adenosine A3 receptor expressed in CHO cells at 10 uM after 120 mins by scintillation counting; assay type: cell-based
# T1 sequence (whole entry): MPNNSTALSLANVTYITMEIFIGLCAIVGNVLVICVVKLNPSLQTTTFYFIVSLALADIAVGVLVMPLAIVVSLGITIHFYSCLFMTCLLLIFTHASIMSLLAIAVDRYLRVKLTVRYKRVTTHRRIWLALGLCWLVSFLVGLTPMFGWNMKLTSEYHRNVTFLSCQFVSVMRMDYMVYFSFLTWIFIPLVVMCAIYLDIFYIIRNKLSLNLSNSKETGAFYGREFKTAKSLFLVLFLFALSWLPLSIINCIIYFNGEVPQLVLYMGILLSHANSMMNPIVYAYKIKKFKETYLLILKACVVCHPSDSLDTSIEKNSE
# [2] = molecular target: T2, Adenosine receptor A1 (Homo sapiens) (UniProt P30542); test: Binding affinity to human adenosine A1 receptor expressed in CHO cells assessed as fold Bmax shift of [3H]-CCPA at 10 uM after 90 mins by [3H]-CCPA binding assay relative to control; assay type: cell-based
# T2 sequence (whole entry): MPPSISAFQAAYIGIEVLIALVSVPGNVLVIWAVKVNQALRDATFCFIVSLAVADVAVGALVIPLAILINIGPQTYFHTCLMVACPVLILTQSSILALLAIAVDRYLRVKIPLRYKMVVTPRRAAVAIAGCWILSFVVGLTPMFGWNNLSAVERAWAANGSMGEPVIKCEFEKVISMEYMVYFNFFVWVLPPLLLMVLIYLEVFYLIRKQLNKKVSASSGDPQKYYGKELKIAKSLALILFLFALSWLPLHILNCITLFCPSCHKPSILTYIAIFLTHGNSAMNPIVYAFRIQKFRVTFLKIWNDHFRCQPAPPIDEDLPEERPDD
# [3] = molecular target: T2, Adenosine receptor A1 (Homo sapiens); test: Positive allosteric enhancement of human cloned adenosine A1 receptor expressed in CHO cells assessed as inhibition of forskolin-induced cAMP accumulation at 100 nM using [3H]-cAMP by scintillation counting relative to control in presence of 1 pM of CCPA; assay type: functional, cell-based
# [4] = molecular target: T2, Adenosine receptor A1 (Homo sapiens); test: Positive allosteric enhancement of human cloned adenosine A1 receptor expressed in CHO cells assessed as inhibition of forskolin-induced cAMP accumulation at 10 uM using [3H]-cAMP by scintillation counting relative to control; assay type: functional, cell-based
# [5] = Displacement of [3H]-ZM241385 from human adenosine A2 receptor expressed in CHO cells at 10 uM after 120 mins by scintillation counting; assay type: cell-based
# [6] = molecular target: T2, Adenosine receptor A1 (Homo sapiens); test: Ratio of PD81723 to compound for positive allosteric enhancement of human cloned adenosine A1 receptor expressed in CHO cells assessed as inhibition of forskolin-induced cAMP accumulation at 10 uM using [3H]-cAMP by scintillation counting; assay type: functional, cell-based
# [7] = molecular target: T2, Adenosine receptor A1 (Homo sapiens); test: Binding affinity to human adenosine A1 receptor expressed in CHO cells assessed as fold Ki shift of CCPA at 10 uM after 90 mins by [3H]-CCPA displacement assay relative to control; assay type: cell-based
# [8] = molecular target: T2, Adenosine receptor A1 (Homo sapiens); test: Displacement of [3H]DPCPX from human adenosine A1 receptor expressed in CHO cells at 10 uM after 120 mins by scintillation counting; assay type: cell-based
inhibition [1] [%],fold change (FC) [2],inhibition [3] [%],inhibition [4] [%],Ratio [6],fold change (FC) [7],inhibition [8] [%],Compound,inhibition [5] [%]
< 10,9.1,73,75,3,9.5,< 10,Nc1sc(-c2ccc(Cl)cc2)c(Cc2ccc(F)cc2)c1C(=O)c1ccc(Cl)cc1,< 10
< 10,5.1,50,52,3,4.6,< 10,COc1ccc(Cc2c(-c3ccc(OC)cc3)sc(N)c2C(=O)c2ccc(Cl)cc2)cc1,< 10
< 10,7.2,67,69,3,8.4,< 10,Nc1sc(-c2ccc(Cl)cc2)c(Cc2ccccc2)c1C(=O)c1ccc(Cl)cc1,< 10
< 10,1.8,26,26,–,2,< 10,CC(C)Oc1ccc(Cc2sc(N)c(C(=O)c3ccc(Cl)cc3)c2-c2ccccc2)cc1,< 10
< 10,6.3,57,58,3,5.4,< 10,Nc1sc(-c2ccccc2)c(Cc2ccc(F)cc2)c1C(=O)c1ccc(Cl)cc1,< 10
< 10,5.6,51,55,3,4.9,< 10,COc1ccccc1Cc1c(-c2ccccc2)sc(N)c1C(=O)c1ccc(Cl)cc1,< 10
< 10,2.6,35,34,–,1.9,< 10,Nc1sc(Cc2ccccc2)c(-c2ccccc2)c1C(=O)c1ccc(Cl)cc1,< 10
< 10,6.3,59,58,3,5.4,< 10,COc1ccc(Cc2c(-c3ccc(F)cc3)sc(N)c2C(=O)c2ccc(Cl)cc2)cc1,< 10
< 10,2.7,30,31,–,2.4,< 10,COc1ccc(Cc2sc(N)c(C(=O)c3ccc(Cl)cc3)c2-c2ccccc2)cc1C,< 10
< 10,8.6,69,71,3,7.2,< 10,Cc1ccc(Cc2c(-c3ccc(Cl)cc3)sc(N)c2C(=O)c2ccc(Cl)cc2)cc1,< 10
–,5.8,–,–,–,4,–,CC(C)(C)Cc1c(-c2ccc(Cl)cc2)sc(N)c1C(=O)c1ccc(Cl)cc1,–
< 10,7.6,67,65,3,5.8,< 10,CC(C)Oc1ccc(Cc2c(-c3ccccc3)sc(N)c2C(=O)c2ccc(Cl)cc2)cc1,< 10
< 10,8.2,69,68,3,6.6,< 10,Nc1sc(-c2ccccc2)c(Cc2ccc(OC(F)(F)F)cc2)c1C(=O)c1ccc(Cl)cc1,< 10
< 10,9.1,66,69,3,8.9,< 10,Nc1sc(-c2ccccc2)c(Cc2ccc(C(F)(F)F)cc2)c1C(=O)c1ccc(Cl)cc1,< 10
< 10,6.4,64,61,3,5.6,< 10,Nc1sc(-c2ccccc2)c(Cc2ccc(Cl)cc2)c1C(=O)c1ccc(Cl)cc1,< 10
< 10,4.3,43,47,3,3.8,< 10,COc1cc(Cc2c(-c3ccccc3)sc(N)c2C(=O)c2ccc(Cl)cc2)cc(OC)c1OC,< 10
< 10,1.8,24,25,–,1.6,< 10,Nc1sc(Cc2ccc(C(F)(F)F)cc2)c(-c2ccccc2)c1C(=O)c1ccc(Cl)cc1,< 10
< 10,4.8,47,46,3,3.5,< 10,COc1ccc(-c2sc(N)c(C(=O)c3ccc(Cl)cc3)c2Cc2ccccc2)cc1,< 10
< 10,6.1,58,57,–,4.3,< 10,Nc1sc(-c2ccccc2)c(Cc2cccc3ccccc23)c1C(=O)c1ccc(Cl)cc1,< 10
–,11.4,–,–,–,8.7,–,Nc1sc(-c2ccc(Cl)cc2)c(CN2CCN(c3ccc(Cl)cc3)CC2)c1C(=O)c1ccc(Cl)cc1,–
< 10,5.6,53,52,3,4.2,< 10,COc1ccc(Cc2c(-c3ccccc3)sc(N)c2C(=O)c2ccc(Cl)cc2)c(OC)c1,< 10
< 10,2.8,36,35,–,2,< 10,COc1ccc(Cc2sc(N)c(C(=O)c3ccc(Cl)cc3)c2-c2ccccc2)cc1,< 10
< 10,5.3,55,53,3,4.1,< 10,Nc1sc(-c2ccc(F)cc2)c(Cc2ccc(Cl)cc2)c1C(=O)c1ccc(Cl)cc1,< 10
< 10,6.6,65,63,3,6.3,< 10,CSc1ccc(Cc2c(-c3ccccc3)sc(N)c2C(=O)c2ccc(Cl)cc2)cc1,< 10
< 10,8.5,67,70,3,6.6,< 10,COc1ccc(Cc2c(-c3ccc(Cl)cc3)sc(N)c2C(=O)c2ccc(Cl)cc2)cc1,< 10
< 10,1.8,25,24,–,1.8,< 10,Nc1sc(Cc2ccc(OC(F)(F)F)cc2)c(-c2ccccc2)c1C(=O)c1ccc(Cl)cc1,< 10
< 10,1.5,22,21,–,1.4,< 10,Nc1sc(Cc2cccc3ccccc23)c(-c2ccccc2)c1C(=O)c1ccc(Cl)cc1,< 10
< 10,2.6,31,32,–,1.9,< 10,COc1cccc(Cc2sc(N)c(C(=O)c3ccc(Cl)cc3)c2-c2ccccc2)c1,< 10
< 10,1.5,21,22,–,1.5,< 10,CCOc1ccc(Cc2sc(N)c(C(=O)c3ccc(Cl)cc3)c2-c2ccccc2)cc1,< 10
